Laboratory results as given in patent US12492173B2, “Herbicidal substituted N-tetrazolyl aryl carboxamides” (Bayer Aktiengesellschaft, priority 2019, dated 2025).

Experiments:
Assay type in all cases: in vivo
Echinochloa crus-galli [1] = test: Pre-emergence herbicidal action, ECHCG; conditions: dosage 320 g/ha, scored visually after 3 weeks vs untreated controls (100% = plants have died)
Procedure, shortened: (§1)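 Weed seeds sown in sandy loam and covered; WP or EC formulations applied to soil surface as aqueous suspension or emulsion at 600 to 800 l/ha with 0.2% wetting agent. Greenhouse-grown, with damage scored visually after 3 weeks versus untreated controls (0% = like control, 100% = plants dead).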

Hordeum murinum = test: Pre-emergence herbicidal action, HORMU; conditions: dosage 320 g/ha, scored visually after 3 weeks vs untreated controls (100% = plants have died)
Procedure, shortened: as §1

Lolium rigidum = test: Pre-emergence herbicidal action, LOLRI; conditions: dosage 320 g/ha, scored visually after 3 weeks vs untreated controls (100% = plants have died)
From the text: 1. Pre-Emergence Herbicidal Action Against Harmful Plants Seeds of monocotyledonous and dicotyledonous weed plants and crop plants are laid out in sandy loam soil in wood-fiber pots and covered with soil. The compounds of the invention, formulated in the form of wettable powders (WP) or as emulsion concentrates (EC), are then applied to the surface of the covering soil in the form of an aqueous suspension or emulsion at a water application rate equating to 600 to 800 l/ha, with addition of 0.2% wetting agent. After the treatment, the pots are placed in a greenhouse and kept under good growth conditions for the trial plants. The damage to the test plants is scored visually after a test period of 3 weeks by comparison with untreated controls (herbicidal activity in percent (%): 100% activity=the plants have died, 0% activity=like control plants). […] The tables below illustrate, in an exemplary manner, the […] herbicidal action of the compounds according to the invention, the herbicidal activity being stated in percent. [table] In the experiments that follow, herbicidal action of numerous inventive compounds and the known compounds that are structurally closest from D1 (WO 2012/028579 A1) and D2 (WO 2018/202535 A1) were compared under the above-specified conditions by the pre-emergence and post-emergence method. The example numbers given in the tables relate to the compounds disclosed in the respective documents. In addition to the compounds disclosed in D1 and D2, the following compounds V-1 to V-14 that are encompassed by D1 or D2 but are not compounds specified therein were used in the comparative experiments: • V-1: 2-(methylsulfanyl)-3-(methylsulfinyl)-N-(1-methyl-1H-tetrazol-5-yl)-4-(trifluoromethyl)benzamide • V-2: 2-(methylsulfanyl)-3-(methylsulfonyl)-N-(1-methyl-1H-tetrazol-5-yl)-4-(trifluoromethyl)benzamide • V-3: 2,3-bis(ethylsulfanyl)-N-(1-methyl-1H-tetrazol-5-yl)-4-(trifluoromethyl)benzamide • V-4: 2-chloro-3-(ethylsulfanyl)-N-(1-methyl-1H-tetrazol-5-yl)-4-(trifluoromethyl)benzamide • V-5: 2-chloro-4-iodo-3-(methylsulfanyl)-N-(1-methyl-1H-tetrazol-5-yl)benzamide • V-6: 2-chloro-4-iodo-3-(methylsulfinyl)-N-(1-methyl-1H-tetrazol-5-yl)benzamide • V-7: 2-chloro-4-iodo-3-(methylsulfonyl)-N-(1-methyl-1H-tetrazol-5-yl)benzamide • V-8: 2-bromo-3-(methylsulfanyl)-N-(1-methyl-1H-tetrazol-5-yl)-4-(trifluoromethyl)benzamide • V-9: 2-bromo-3-(methylsulfinyl)-N-(1-methyl-1H-tetrazol-5-yl)-4-(trifluoromethyl)benzamide • V-10: 2-bromo-3-(methylsulfonyl)-N-(1-methyl-1H-tetrazol-5-yl)-4-(trifluoromethyl)benzamide • V-11: 2-bromo-3-(ethylsulfanyl)-N-(1-methyl-1H-tetrazol-5-yl)-4-(trifluoromethyl)benzamide • V-12: 2-bromo-3-(ethylsulfinyl)-N-(1-methyl-1H-tetrazol-5-yl)-4-(trifluoromethyl)benzamide • V-13: 2-bromo-3-(ethylsulfonyl)-N-(1-methyl-1-1H-tetrazol-5-yl)-4-(trifluoromethyl)benzamide • V-14: 2-cyclopropyl-3-(ethylsulfanyl)-N-(1-methyl-1H-tetrazol-5-yl)-4-(trifluoromethyl)benzamide Herbicidal Pre-Emergence Action: […]

Avena fatua = test: Post-emergence herbicidal action, AVEFA; set-up: key: % herbicidal action vs untreated; 100 = plants died, 0 = like control
Procedure, shortened: (§2)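 Foliar application at the one-leaf stage of greenhouse-grown plants in sandy loam; compound applied as WP or EC in 600–800 l/ha water containing 0.2% wetting agent. Scores are visual percentages (0% like control, 100% plants died) taken after roughly 3 weeks.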

Cyperus esculentus = test: Post-emergence herbicidal action, CYPES; set-up: key: % herbicidal action vs untreated; 100 = plants died, 0 = like control
Procedure, shortened: as §2

Echinochloa crus-galli [2] = test: Post-emergence herbicidal action, ECHCG; set-up: key: % herbicidal action vs untreated; 100 = plants died, 0 = like control
Procedure, shortened: as §2

Compound: C=CCSCc1c(C(F)(F)F)ccc(C(=O)Nc2nnnn2CCC)c1Cl [Example 3-308]
- herbicidal activity ECHCG (Echinochloa crus-galli [1]): 100%
- herbicidal activity HORMU (Hordeum murinum): 80%
- herbicidal activity LOLRI (Lolium rigidum): 80%
- herbicidal action AVEFA (Avena fatua; Dosage 80 g/ha): 100
- herbicidal action CYPES (Cyperus esculentus; Dosage 80 g/ha): 90
- herbicidal action ECHCG (Echinochloa crus-galli [2]; Dosage 80 g/ha): 100

Compound: CCCn1nnnc1NC(=O)c1ccc(C(F)(F)F)c(CSCC2CC2)c1Cl [Example 3-314]
- herbicidal activity ECHCG (Echinochloa crus-galli [1]): 90%
- herbicidal activity HORMU (Hordeum murinum): 90%
- herbicidal activity LOLRI (Lolium rigidum): 90%
- herbicidal action AVEFA (Avena fatua; post-emergence, dosage 80 g/ha): 100%
- herbicidal action CYPES (Cyperus esculentus; post-emergence, dosage 80 g/ha): 80%
- herbicidal action ECHCG (Echinochloa crus-galli [2]; post-emergence, dosage 80 g/ha): 100%

Compound: CCCn1nnnc1NC(=O)c1ccc(C(F)F)c(CS(=O)(=O)CC)c1Cl [Example 3-325]
- herbicidal activity ECHCG (Echinochloa crus-galli [1]): 100%
- herbicidal activity HORMU (Hordeum murinum): 100%
- herbicidal activity LOLRI (Lolium rigidum): 100%
- herbicidal action AVEFA (Avena fatua; Dosage 80 g/ha): 100
- herbicidal action CYPES (Cyperus esculentus; Dosage 80 g/ha): 90
- herbicidal action ECHCG (Echinochloa crus-galli [2]; Dosage 80 g/ha): 100
